What was measured:
[1] = target: human RORγt LBD (Homo sapiens (Human), UniProt P51449); assay: RORγt Reporter Assay; type: cell-based; details: for IC50 / RORγt reporter Assay, % inhibition @ 6 μM: HEK293T cells; for inhibition at 6 µM: HEK-293T, read-out: RORγt reporter Assay, % inhibition @ 6 μM, HEK293T cells, 6 μM
Text: A reporter assay was used to test functional activity of RORγt modulatory compounds on transcriptional activation driven by the RORγt LBD. Cells used in the assay were co-transfected with two constructs. The first construct, pBIND-RORγt LBD, contained the wild type human RORγt LBD fused to the DNA binding domain of the GAL4 protein. The second construct, pGL4.31 (Promega Cat no. C935A), contained multiple GAL4 responsive DNA elements upstream of firefly luciferase. […] The mutant construct was called pBIND-RORγt-AF2.
The pBIND vector contains the GAL4 DNA Binding Domain (GAL4 DBD) and the renilla luciferase gene under control of the SV40 promoter. Renilla luciferase expression serves as a control for transfection efficiency and cell viability.
The reporter assay was performed by transiently transfecting HEK293T cells with 5 μg of pBIND-RORγt LBD or pBIND-RORγt LBD-AF2 and 5 μg pGL4.31 (Promega Cat no. C935A) using Fugene 6 (Invitrogen Cat no. E2691) at a 1:6 ratio of DNA:Fugene 6 in a T-75 flask in which cells were at least 80% confluent. Twenty four hours after bulk transfection, cells were plated into 96-well plates at 50,000 cells/well in phenol-red free DMEM containing 5% Lipid Reduced FCS and Pen/Strep. Six hours after plating, cells were treated with compounds for 24 hours. Media was removed and cells were lysed with 50 μL 1× Glo Lysis Buffer (Promega). Dual Glo Luciferase Reagent (50 μL/well) was then added and firefly luciferase luminescence was read on an Envision after a ten minute incubation. Finally, Stop and Glo reagent (50 μL/well) was added and renilla luciferase luminescence was read on an Envision after a ten minute incubation. To calculate the effect of compounds on RORγt activity, the ratio of firefly to renilla luciferase was determined and plotted against compound concentration. Agonist compounds increase RORγt-driven luciferase expression, and antagonist or inverse agonist compounds decrease luciferase expression.

[2] = test system: IL-17 production by CD4 T cells; assay: Human Th17 Assay; type: cell-based; details: 3 days
Text: The human Th17 assay tests the effect of RORγt modulatory compounds on IL-17 production by CD4 T cells under conditions which favor Th17 differentiation. Total CD4^+ T cells were isolated from the peripheral blood mononuclear cells (PBMC) of healthy donors using a CD4^+ T cell isolation kit II, following the manufacturer's instructions (Miltenyi Biotec). Cells were resuspended in a medium of RPMI-1640 supplemented with 10% fetal bovine serum, penicillin, streptomycin, glutamate, and β-mercaptoethanol and were added to 96-well plates at 1.5×10^5 per 100 μL per well. 50 μL of compound at titrated concentrations in DMSO were added into each well at final DMSO concentration at 0.2%. Cells were incubated for 1 hour, then 50 μL of Th17 cell differentiation medium was added to each well. The final concentrations of antibodies and cytokines (R&D Systems) in differentiation medium were: 3×10^6/mL anti-CD3/CD28 beads (prepared using human T cell activation/expansion kit, Miltenyi Biotec), 10 μg/mL anti-IL4, 10 μg/mL anti-IFNγ, 10 ng/mL IL1β, 10 ng/mL IL23, 50 ng/mL IL6, 3 ng/mL TGFβ and 20 U/mL IL2. Cells were cultured at 37° C. and 5% CO2 for 3 days. Supernatants were collected and the accumulated IL-17 in culture was measured by using MULTI-SPOT® Cytokine Plate following manufacture's instruction (Meso Scale Discovery). The plate was read using Sector Imager 6000, and IL-17 concentration was extrapolated from the standard curve. The IC50s were determined by GraphPad.

Sequence of human RORγt LBD (P51449 258-518): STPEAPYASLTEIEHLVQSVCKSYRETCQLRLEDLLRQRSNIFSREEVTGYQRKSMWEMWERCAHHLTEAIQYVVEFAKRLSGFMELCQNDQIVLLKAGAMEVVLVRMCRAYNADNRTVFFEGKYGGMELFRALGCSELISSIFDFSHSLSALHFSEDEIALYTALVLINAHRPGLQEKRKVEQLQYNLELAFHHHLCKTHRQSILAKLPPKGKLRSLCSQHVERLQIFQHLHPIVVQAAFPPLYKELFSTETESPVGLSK

Compound | IC50 [1] [nM] | inhibition at 6 µM [1] [%] | IC50 [2] [nM] | RORγt reporter Assay, % inhibition @ 6 μM [1] [%] | IC50 ([2]; Homo sapiens, CD4+ T, 72 h) [nM]
COc1nc2ccc(C(C)(O)c3cnnn3C)cc2c(Cl)c1Cc1ccc(C(F)(F)F)cc1 (single isomer, unassigned) [Example 11b, 1-(4-Chloro-2-methoxy-3-(4-(trifluoromethyl)benzyl)quinolin-6-yl)-1-(1-methyl-1H-1,2,3-triazol-5-yl)ethanol] | 210 | 98 | 870 | – | –
COc1nc2ccc(C(C)(O)c3cnnn3C)cc2c(Cl)c1Cc1ccc(C(F)(F)F)cc1 (single isomer, unassigned) [Example 11c, 1-(4-Chloro-2-methoxy-3-(4-(trifluoromethyl)benzyl)quinolin-6-yl)-1-(1-methyl-1H-1,2,3-triazol-5-yl)ethanol] | 15 | – | 57 | 99 | –
COc1nc2ccc(C(C)(O)c3cnc(C)n3C)cc2c(Cl)c1Cc1ccc(C(F)(F)F)cc1 (single isomer, unassigned) [Example 12b, 1-(4-Chloro-2-methoxy-3-(4-(trifluoromethyl)benzyl)quinolin-6-yl)-1-(1,2-dimethyl-1H-imidazol-5-yl)ethanol] | 500 | 102 | 2100 | – | –
COc1nc2ccc(C(C)(O)c3cnc(C)n3C)cc2c(Cl)c1Cc1ccc(C(F)(F)F)cc1 (single isomer, unassigned) [Example 12c, 1-(4-Chloro-2-methoxy-3-(4-(trifluoromethyl)benzyl)quinolin-6-yl)-1-(1,2-dimethyl-1H-imidazol-5-yl)ethanol] | 41 | – | 80 | 102 | –
COc1nc2ccc(C(C)(O)c3ccc(C)nc3C)cc2c(Cl)c1Cc1ccc(C(F)(F)F)cc1 (single isomer, unassigned) [Example 13b, 1-(4-Chloro-2-methoxy-3-(4-(trifluoromethyl)benzyl)quinolin-6-yl)-1-(2,6-dimethylpyridin-3-yl)ethanol] | 200 | 101 | 170 | – | –
COc1nc2ccc(C(C)(O)c3ccc(C)nc3C)cc2c(Cl)c1Cc1ccc(C(F)(F)F)cc1 (single isomer, unassigned) [Example 13c, 1-(4-Chloro-2-methoxy-3-(4-(trifluoromethyl)benzyl)quinolin-6-yl)-1-(2,6-dimethylpyridin-3-yl)ethanol] | 46 | – | 60 | 100 | –
C#CC(O)(c1ccc2nc(OC)c(Cc3ccc(C(F)(F)F)cc3)c(Cl)c2c1)c1cnc(C)n1C (single isomer, unassigned) [Example 14b, 1-(4-Chloro-2-methoxy-3-(4-(trifluoromethyl)benzyl)quinolin-6-yl)-1-(1,2-dimethyl-1H-imidazol-5-yl)prop-2-yn-1-ol] | 66 | 84 | – | – | 190
C#CC(O)(c1ccc2nc(OC)c(Cc3ccc(C(F)(F)F)cc3)c(Cl)c2c1)c1cnc(C)n1C (single isomer, unassigned) [Example 14c, 1-(4-Chloro-2-methoxy-3-(4-(trifluoromethyl)benzyl)quinolin-6-yl)-1-(1,2-dimethyl-1H-imidazol-5-yl)prop-2-yn-1-ol] | 310 | – | 290 | 94 | –

Reference: patent US9346782B2, “Alkyl linked quinolinyl modulators of RORγt” (Janssen Pharmaceutica NV, priority 2013, dated 2016)
